Data as given in patent US5434132A, “Neuropeptide antagonists” (Imperial Cancer Research Technology, Ltd., priority 1988, dated 1995).
Where two headings read alike, the source gives them in different places. Non-standard residues stand in square brackets, D forms with d. Residues, ends and D or L forms follow the SMILES beside them. No end group written: not given here. *: point of attachment. X1 = CC(C)C[C@@H](CN[C@@H](CC(C)C)C(N)=O)N*; pGlu = O=C1CC[C@@H](C(=O)O)N1

Columns and labels:
bombesin/GRP receptor [1] = molecular target: T1, bombesin/GRP receptor (Mus musculus, UniProt P21729); assay: 125I-GRP binding to membrane preparations of Swiss 3T3 cells; set-up: species or system murine; details: addition at 1μM; 0.5 nM 125I-GRP, 37° C., 10 minutes; None 305 ± 9; mean±SEM, n=3
T1 construct: Membrane protein (150 μg) prepared from Swiss 3T3 cells as described above; endogenous in cells; host or cells: Swiss 3T3 cells; membrane-enriched fraction prepared with 5 mM Mg2+
Experimental: Membrane preparation: Cultures in roller bottles were washed twice with 150 ml phosphate buffered saline (PBS) (0.14M NaCl, 5 mM KCl, 0.01M Na2 HPO4, 1.8 mM KH2 PO4; pH 7.2) at room temperature. The cells were then harvested at 4° C. by scraping into ice cold PBS containing 5 mM MgCl2, 1 mM [ethylenebis(oxyethylenenitrilo)]tetraacetic acid (EGTA), 1 mg/ml bacitracin, 10 ug/ml aprotonin, 1 mg/ml soybean trypsin inhibitor and 50 μM phenylmethylsulphonyl fluoride. All subsequent steps were carried out at 4° C. The cells were pelleted by centrifugation at 750 x g for 10 minutes and resuspended 5×10^6 /ml in solution A containing 50 mM 4-(2-Hydroxyethyl)-1-piperazineethanesulfonic acid (Hepes), 5 mM MgCl2, 1 mM EGTA, 1 mg/ml bacitracin, 10 μg/ml aprotonin, 1 mg/ml soybean trypsin inhibitor and 50 μM phenylmethylsulfonyl fluoride, adjusted to pH 7.4 with NaOH at 4° C. Cells were then disrupted using a Dounce homogeniser (A pestle) 75 strokes. The homogenate was centrifuged at 500 x g for 10 minutes to remove nuclear material and intact cells and the supernatant was centrifuged again at 30000 x g for 30 minutes. The resulting pellet, representing a membrane-enriched preparation was resuspended at a protein concentration of 5 to 10 mg/ml in solution A and stored in liquid nitrogen. For experiments, membranes were thawed and diluted to a concentration of 1 mg/ml with solution A.
Receptor binding assay: Binding assays were carried out in a total volume of 100 ul in binding medium containing 50 mM Hepes, 5 mM MgCl2, 1 mg/ml bacitracin and 1% bovine serum albumin (BSA), adjusted to pH 7.4 with NaOH, unless otherwise indicated. […] Non-specific binding was subtracted from the total binding to obtain specific binding. The membranes were incubated for either 10 minutes at 37° C. or 30 minutes: at 15° C. as indicated.
The binding reactions were terminated at the specified times by rapid filtration on GF/B glass fibre filters (Whatmann, 1.0 μm pore size). Each filter was washed five times with 5 ml of PBS containing 1% BSA at 4° C. (15 s total time) using a Millipore filtration apparatus. Before the addition of membranes the filters were soaked for 24 hours in 5% polyethylenimine at 4° C. and washed with 5 ml of PBS containing 1% BSA immediately prior to use. […] Radioactivity was determined with a Beckmann γ-counter.
When 1n[(Beq - Bt)/(BoLo - Beq Bt)]is plotted as a function of time k1 can be determined from the slope by the following relation k1 =slope x [Beg/(Beg^2 - BoLo)](36) where Bo and Lo are the initial concentrations of receptor and ligand respectively. Bt is the concentration of receptor-ligand complex at time t and Beg is its concentration at equilibrium. Equation (1) takes into account the decrease in free ligand concentration that occurs during the binding reaction.
The first order rate constant of dissociation was determined from the slope of the line obtained by plotting ln(Bt/Beg) as a function of time.
The reactions were terminated and specific binding determined as described in "Experimental Procedures".

Mr 75,000-85,000 protein = molecular target: T2, Mr 75,000-85,000 protein (Mus musculus, UniProt P21729); assay: Chemical cross-linking (EGS) of 125I-GRP to the Mr 75,000-85,000 protein in Swiss 3T3 membranes; type: binding, murine; details: 10 min, read-out: 125I-GRP affinity labelling of the Mr 75,000-85,000 protein
T2 construct: Membrane protein (150 μg) prepared from Swiss 3T3 cells as described above; endogenous in cells; host or cells: Swiss 3T3 cells; membrane-enriched fraction prepared with 5 mM Mg2+
Experimental: BSA was omitted from all solutions used in the cross-linking studies. At the end of the incubation the membranes were centrifuged at 1000 rpm for 1 minute in a MSE microfuge at room n temperature. The pellets were then resuspended in cross-linking medium containing 4 mM of the cross-linking reagent (EGS) and incubated at 37° C. or 15° C. for 5 minutes or 15 minutes respectively. The reaction was terminated by centrifugation for 1 minute followed by one wash with cross-linking medium and centrifugation. Samples were solubilised in 0.20 ml of 2× sample buffer, (0.2 M Tris-HCl pH 6.8, 10% (w/v) glycerol, 6% sodium dodecyl sulphate (SDS) (w/v), 4% β-mercaptoethanol (v/v), and 2 mM EDTA), immediately heated to 100° C. for 10 minutes and analysed by one dimensional electrophoresis.
SDS-Polyacrylaaide Gel glectrophoresis: Slab gel electrophoresis was performed using 8% acrylamide in the separating gel and 4% in the stacking gel and 0.1% SDS (37). After electrophoresis gels were stained, desrained and dried down onto paper for autoradiography with Fuji x-ray film. Dried gels were exposed for 2-4 days at -70° C. Autoradiograms were scanned using an LKB ultrascan XL densitometer; and the incorporation of radioactivity into the Mr 75,000-85,000 band was quantified using the Ultroscan XL internal digital integrator.
Following incubation at 37° C. for 10 minutes the membranes were pelleted by centrifugation and chemical cross-linking carried out as described in "Experimental Procedures" using 4 mM EGS. The samples were analyzed by SDS-PAGE and scanning densitometry of the autoradiograms as described in "Experimental Procedures".

Swiss 3T3 cells [2] = assay: Cytosolic Ca2+ concentration in Fura-2 loaded Swiss 3T3 cells; type: cell-based, murine; details: Fura-2 loaded cells
bombesin/GRP receptor [3] = molecular target: T1, bombesin/GRP receptor; assay: [125I]GRP binding to intact Swiss 3T3 cells; set-up: species or system murine; details: 37° C.
vasopressin receptor [4] = molecular target: T3, vasopressin receptor (Mus musculus, UniProt Q62463); assay: [3H]vasopressin binding to Swiss 3T3 cells; set-up: species or system murine
T3 construct: endogenous in cells; host or cells: Swiss 3T3 cells

Swiss 3T3 cells [5] = assay: Stimulation of DNA synthesis in Swiss 3T3 cells; type: cell-based, murine; details: in the presence of insulin
[6] = system: guinea pig pancreatic acini; details: read-out: 50% inhibition (IC50) of bombesin-stimulated amylase release; cited from earlier work
[7] = molecular target: T4, Mr 75,000-85,000 glycoprotein component of the receptor (Mus musculus, UniProt P21729); assay: Cross-linking of [125I]GRP to the Mr 75,000-85,000 glycoprotein in intact Swiss 3T3 cells; type: binding, murine; details: 1 nM [125I]GRP, 24° C.
T4 construct: endogenous in cells; host or cells: Swiss 3T3 cells (intact, confluent and quiescent)
Experimental: Methods: Swiss 3T3 cells were maintained in culture and assays of DNA synthesis performed as previously described 2,4,6 In all the figures, values shown represent the mean of at least 2 determinations. […] After 10 mins they were washed twice with binding medium, then incubated at 24° C. in 1 ml containing […] ethylene glycol bis(succinimidylsuccinate) at pH 7.4. After 10 mins they were washed twice with cold binding medium and solubilised in 100 μl sample buffer^8,then immediately boiled for 5 mins, and electrophoresed on a 10% polyacrylamide gel.

Swiss 3T3 cells [8] = type: cell-based, murine
Swiss 3T3 cells [9] = assay: Vasopressin-induced DNA synthesis in Swiss 3T3 cells; type: cell-based, murine
Swiss 3T3 cells [10] = system: Swiss 3T3 cells
Swiss 3T3 cells [11] = assay: EGF receptor transmodulation elicited by GRP in Swiss 3T3 cells; type: cell-based, murine; details: 1 min
Swiss 3T3 cells [12] = assay: Mitogenesis stimulated by VIP in Swiss 3T3 cells; type: cell-based, murine
Swiss 3T3 cells [13] = assay: Ca2+ mobilisation elicited by GRP in Swiss 3T3 cells; type: cell-based, murine; details: 5 secs
Swiss 3T3 cells [14] = system: Swiss 3T3 cells; remark: listed apart in the source
vasopressin receptor [15] = molecular target: T3, vasopressin receptor; details: references 4,12,13; cited from earlier work
Swiss 3T3 cells [16] = details: references 4,12,13; cited from earlier work
[17] = system: bombesin/GRP, bradykinin and vasopressin receptors; assay: Mitogenic responses elicited through bombesin/GRP, bradykinin and vasopressin receptors; type: cell-based, murine
[18] = system: small cell lung cancer (SCLC) cell lines; assay: Growth in vitro of small cell lung cancer (SCLC) cell lines
Swiss 3T3 cells [19] = details: earlier patent application and references 10, 11; cited from earlier work

T1 sequence (P21729 whole entry): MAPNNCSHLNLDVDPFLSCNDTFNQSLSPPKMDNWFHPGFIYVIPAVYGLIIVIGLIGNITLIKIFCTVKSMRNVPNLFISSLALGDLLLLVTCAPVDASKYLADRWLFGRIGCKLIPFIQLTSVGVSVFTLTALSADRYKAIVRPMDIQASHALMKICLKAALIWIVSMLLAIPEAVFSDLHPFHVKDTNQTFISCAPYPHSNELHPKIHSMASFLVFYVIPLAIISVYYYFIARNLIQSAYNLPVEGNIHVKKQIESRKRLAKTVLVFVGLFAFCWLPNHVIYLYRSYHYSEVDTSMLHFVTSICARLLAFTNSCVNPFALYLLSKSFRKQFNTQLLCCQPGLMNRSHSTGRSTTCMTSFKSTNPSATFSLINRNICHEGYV
T3 sequence (Q62463 whole entry): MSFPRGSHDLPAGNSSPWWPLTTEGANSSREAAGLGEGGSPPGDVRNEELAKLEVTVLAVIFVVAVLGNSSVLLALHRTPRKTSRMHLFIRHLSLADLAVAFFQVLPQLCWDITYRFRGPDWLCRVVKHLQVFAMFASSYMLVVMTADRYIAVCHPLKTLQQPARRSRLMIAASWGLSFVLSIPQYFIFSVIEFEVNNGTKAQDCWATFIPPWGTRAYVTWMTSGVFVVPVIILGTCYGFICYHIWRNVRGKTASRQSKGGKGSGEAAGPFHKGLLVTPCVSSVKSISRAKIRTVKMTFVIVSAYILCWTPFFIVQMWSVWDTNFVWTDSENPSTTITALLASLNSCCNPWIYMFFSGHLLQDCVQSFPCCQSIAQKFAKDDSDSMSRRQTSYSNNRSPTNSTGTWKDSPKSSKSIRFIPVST
T4 sequence (P21729 whole entry): as the sequence (P21729 whole entry) above
T2 sequence (P21729 whole entry): as above

Compound: RPPGFSPFR [Bradykinin, bradykinin]
- specific binding of 125I-GRP to membranes (bombesin/GRP receptor [1]): 302 ± 9 fmole/mg protein
- remaining activity at 1 µM (Mr 75,000-85,000 protein): 95 ± 3%
- change in cytosolic Ca2+ concentration (Swiss 3T3 cells [2]): rapid and transient increase
- inhibition of specific binding of [125I]GRP to the cells (bombesin/GRP receptor [3]): did not inhibit
- inhibition of [3H]vasopressin binding (vasopressin receptor [4]): did not inhibit
- stimulation of DNA synthesis (Swiss 3T3 cells [5]): maximal stimulation

Compound: CC(C)C[C@@H](CN[C@@H](CC(C)C)C(N)=O)NC(=O)[C@H](Cc1c[nH]cn1)NC(=O)CNC(=O)[C@@H](NC(=O)[C@H](C)NC(=O)[C@H](Cc1c[nH]c2ccccc12)NC(=O)[C@H](CCC(N)=O)NC(=O)[C@H](CC(N)=O)NC(=O)CNC(=O)[C@H](CC(C)C)NC(=O)[C@H](CCCNC(=N)N)NC(=O)[C@H](CCC(N)=O)NC(=O)[C@@H]1CCC(=O)N1)C(C)C [[Leu^13 -.PSI.(CH2 NH)Leu^14]bombesin] ([pGlu]QRLGNQWAVGH-X1; C-terminus assumed)
- IC50 [6]: 0.035 µM
- block of cross-linking of [125I]GRP to the Mr 75,000-85,000 glycoprotein [7]: blocked
- inhibition of mitogenesis stimulated by EGF, PDGF, phorbol dibutyrate, cholera toxin and 8-bromo-cAMP (Swiss 3T3 cells [8]): Neither of them inhibited
- inhibition of vasopressin-induced DNA synthesis (Swiss 3T3 cells [9]): no effect
- effect against DNA synthesis induced by various bombesin-like peptides (Swiss 3T3 cells [10]): effective
- inhibition of GRP-induced DNA synthesis (Swiss 3T3 cells [10]): strongly inhibited
- inhibition of specific binding of [125I]GRP to the cells (bombesin/GRP receptor [3]): inhibited
- block of EGF receptor transmodulation elicited by GRP (Swiss 3T3 cells [11]): blocked
- inhibition of mitogenesis stimulated by VIP (Swiss 3T3 cells [12]): Neither antagonist D nor [Leu^13 -.PSI.(CH2 NH)Leu^14 ]bombesin inhibited
- block of Ca2+ mobilisation elicited by GRP (Swiss 3T3 cells [13]): blocked
- effect on bradykinin-stimulated DNA synthesis (Swiss 3T3 cells [14]; 1 μM L.PSI.LB): no effect

Compound: CC(C)C[C@H](NC(=O)[C@H](CC(C)C)NC(=O)[C@@H](Cc1c[nH]c2ccccc12)NC(=O)[C@H](Cc1ccccc1)NC(=O)[C@@H](Cc1c[nH]c2ccccc12)NC(=O)[C@H](CCC(N)=O)NC(=O)[C@@H](Cc1ccccc1)NC(=O)[C@@H]1CCCN1C(=O)[C@H](CCCCN)NC(=O)[C@@H]1CCCN1C(=O)[C@H](N)CCCNC(=N)N)C(N)=O [antagonist D, D-Arg-Pro-Lys-Pro-D-Phe-Gln-D-Trp-Phe-D-Trp-Leu-Leu-NH2] (H-[dR]PKP[dF]Q[dW]F[dW]LL-NH2)
- inhibition of [3H]vasopressin binding (vasopressin receptor [15]): inhibit
- inhibition of vasopressin-stimulated DNA synthesis (Swiss 3T3 cells [16]): inhibit
- inhibition of mitogenesis stimulated by EGF, PDGF, phorbol dibutyrate, cholera toxin and 8-bromo-cAMP (Swiss 3T3 cells [8]; 20 μM antagonist D or 1 μm L.PSI.LB): Neither of them inhibited
- potency relative to antagonist A against each mitogen [17]: 5-10 fold
- inhibition of vasopressin-induced DNA synthesis (Swiss 3T3 cells [9]; 1 uM L.PSI.LB or antagonist D): potent inhibitor
- potency relative to Antagonist A in inhibiting growth of SCLC [18]: 5-10 fold
- effect against DNA synthesis induced by various bombesin-like peptides (Swiss 3T3 cells [10]; 20 μM antagonist D or 1 μm L.PSI.LB, GRP 3.6 nM, bombesin 1.2 nM, litorin 1.8 nM): effective
- potency as bombesin antagonist relative to antagonist A (Swiss 3T3 cells [19]): 5-10 fold
- inhibition of mitogenesis stimulated by VIP (Swiss 3T3 cells [12]; VIP 3.0 nM, 20 μM antagonist D or 1 μm L.PSI.LB): Neither antagonist D nor [Leu^13 -.PSI.(CH2 NH)Leu^14 ]bombesin inhibited
- IC50 (Swiss 3T3 cells [14]): 8.3 µM
